Where two headings read alike, the source gives them in different places.
Assays:
[1] = target: T1, cytochrome P450 1A1 (CYP1A1) (Homo sapiens, UniProt P04798); assay: P450-Glo Luc-CEE luminescence assay with recombinant CYP1A1 microsomes; format: biochemical
T1 sequence (P04798 1-512): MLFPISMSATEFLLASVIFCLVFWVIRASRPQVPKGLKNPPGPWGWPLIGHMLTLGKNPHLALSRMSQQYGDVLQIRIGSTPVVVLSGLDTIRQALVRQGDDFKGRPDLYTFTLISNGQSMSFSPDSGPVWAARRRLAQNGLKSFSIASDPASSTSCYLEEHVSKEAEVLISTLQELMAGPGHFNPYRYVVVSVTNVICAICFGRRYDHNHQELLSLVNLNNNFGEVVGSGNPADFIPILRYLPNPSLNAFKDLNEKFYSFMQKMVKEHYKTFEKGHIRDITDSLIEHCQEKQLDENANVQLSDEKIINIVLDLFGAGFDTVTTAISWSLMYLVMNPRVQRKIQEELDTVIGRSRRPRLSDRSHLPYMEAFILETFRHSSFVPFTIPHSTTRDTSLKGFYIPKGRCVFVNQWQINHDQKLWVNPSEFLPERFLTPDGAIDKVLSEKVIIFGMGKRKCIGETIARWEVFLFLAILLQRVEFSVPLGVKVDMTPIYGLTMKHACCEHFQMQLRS

[2] = target: T1, cytochrome P450 1A1 (CYP1A1); assay: as above; format: biochemical; remark: listed apart in the source

Compound	IC50 [1]	IC50 [2]
NCCc1c[nH]c2ccc(O)cc12 [5-HT, Serotonin]	1620 nM	–
NCCc1c[nH]c2ccccc12 [TRYPT, Tryptamine]	–	1400 nM
O=c1cc(-c2ccccc2)oc2c1ccc1ccccc12 [α-NF, α-naphthoflavone, reference compound]	–	760 nM

Source: article PMC7050772 (Cellular physiology and biochemistry : international …, 2020)
